The target of assay [1] is T1, maize endosperm ADP-glucose pyrophosphorylase (AGP), wild type (small subunit BT2 WT-STYL, SEQ ID NO: 2, with wild type large subunit Shrunken-2) (Zea mays, UniProt P55241+Q947C0).
T1 sequence (Q947C0 1-475): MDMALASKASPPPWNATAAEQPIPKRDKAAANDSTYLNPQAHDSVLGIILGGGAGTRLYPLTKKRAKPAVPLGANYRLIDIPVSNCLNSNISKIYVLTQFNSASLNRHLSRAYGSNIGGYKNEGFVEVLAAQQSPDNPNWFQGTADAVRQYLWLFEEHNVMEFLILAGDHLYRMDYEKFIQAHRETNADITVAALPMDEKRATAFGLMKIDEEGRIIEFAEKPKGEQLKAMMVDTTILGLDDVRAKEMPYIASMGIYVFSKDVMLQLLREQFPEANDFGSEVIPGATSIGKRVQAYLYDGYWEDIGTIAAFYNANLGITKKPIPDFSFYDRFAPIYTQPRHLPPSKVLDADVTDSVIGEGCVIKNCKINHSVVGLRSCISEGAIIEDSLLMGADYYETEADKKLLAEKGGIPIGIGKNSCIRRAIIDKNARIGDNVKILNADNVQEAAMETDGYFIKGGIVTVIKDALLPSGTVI
T1 sequence (P55241 46-516): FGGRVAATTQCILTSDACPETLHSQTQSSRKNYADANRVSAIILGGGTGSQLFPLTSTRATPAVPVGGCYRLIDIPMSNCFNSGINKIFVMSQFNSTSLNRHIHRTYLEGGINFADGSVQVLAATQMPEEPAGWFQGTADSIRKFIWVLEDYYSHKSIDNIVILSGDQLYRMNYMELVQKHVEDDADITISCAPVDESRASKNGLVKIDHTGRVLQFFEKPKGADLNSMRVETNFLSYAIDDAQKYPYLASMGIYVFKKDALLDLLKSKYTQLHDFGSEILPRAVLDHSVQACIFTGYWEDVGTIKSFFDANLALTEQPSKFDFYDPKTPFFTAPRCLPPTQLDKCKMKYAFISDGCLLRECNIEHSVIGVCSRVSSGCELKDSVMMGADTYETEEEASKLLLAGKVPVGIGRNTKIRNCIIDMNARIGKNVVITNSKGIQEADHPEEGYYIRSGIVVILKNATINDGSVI
The following applies: effector varied 0-3 mM, 37° C., 10 minutes.
Protocol: (§1) Protein inductions were as described by Greene and Hannah (1998) with a few modifications.
(§2) The 3-Phosphoglyceric acid (3-PGA) was added at varying amounts, as specified. When varied, the substrates ranged from 0-5 mM. Reactions were terminated after 5 minutes by boiling in a water bath for 1 minute. […] The change in absorbance between the blank and the reaction was used to calculate the amount to PPi produced for each sample. All reactions were linear with time and enzyme concentration. All assay tubes were pre-warmed to 37° C. prior to assaying and were initiated by the addition of enzyme.
To determine the extent of activation with or with out 3-PGA, 0.1 or 2.0 μg respectively, of purified maize wt-AGP was incubated for 12.5 minutes in the forward assay. To determine the activation constant for the maize wt AGP, 0.2 μg of purified maize wt-AGP was incubated for 12.5 minutes in the forward assay. 3-PGA concentrations ranged from 0-5.0 mM. Curves were fit using Graph Pad Prism using non-linear regression.

Assay [2] deals with maize endosperm ADP-glucose pyrophosphorylase (AGP) variant QTCL (small subunit BT2 with tyrosine 36 to cysteine and glutamine inserted between serine 34 and …). In words: Activation and inhibition (Assay C, forward direction), QTCL AGP. The assay is classed as biochemical, maize (Zea mays). The note with it: QTCL compared to wild type AGP.
Protocol: (§3) The QTCL construct (SEQ ID NO:7) encodes a maize AGP small subunit protein (SEQ ID NO:8) having a change from a tyrosine at amino acid position 36 to a cysteine and an insertion of a glutamine between the serine at amino acid position 34 and the threonine at amino acid position 35.
as §2
Assay [3] deals with T2, maize endosperm ADP-glucose pyrophosphorylase (AGP) variant QTCL (small subunit BT2 with tyrosine 36 to cysteine and glutamine inserted between serine 34 and th (Zea mays, UniProt P55241+Q947C0, INS34Q/Y36C)).
T2 construct: purified heterotetramer
T2 sequence (Q947C0 with tags, fused parts or gaps INS34Q/Y36C): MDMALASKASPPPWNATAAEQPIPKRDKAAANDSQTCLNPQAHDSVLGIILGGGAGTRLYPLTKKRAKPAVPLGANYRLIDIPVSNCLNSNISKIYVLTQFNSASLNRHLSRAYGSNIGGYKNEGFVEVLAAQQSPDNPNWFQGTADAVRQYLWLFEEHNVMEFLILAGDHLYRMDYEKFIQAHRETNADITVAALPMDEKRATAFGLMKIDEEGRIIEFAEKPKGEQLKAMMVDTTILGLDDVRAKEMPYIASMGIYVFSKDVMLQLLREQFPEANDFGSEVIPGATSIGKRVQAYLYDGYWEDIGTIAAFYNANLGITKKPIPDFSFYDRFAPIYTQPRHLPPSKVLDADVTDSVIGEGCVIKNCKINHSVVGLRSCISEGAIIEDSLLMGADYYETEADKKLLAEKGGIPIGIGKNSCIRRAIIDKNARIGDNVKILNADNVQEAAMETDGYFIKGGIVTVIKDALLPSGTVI
T2 sequence (P55241 46-516): T1 sequence (P55241 46-516)
Described as above. The class given is biochemical. The note with it: QTCL; effector varied 0-3 mM, 37° C., 10 minutes.
Protocol: as §3, §2

The target in assay [4] is T2, maize endosperm ADP-glucose pyrophosphorylase (AGP) variant QTCL (small subunit BT2 with tyrosine 36 to cysteine and glutamine inserted between serine 34 and th). The experiment in a line: Enzyme kinetics (substrates), forward reaction, purified QTCL AGP. The class given is biochemical.
Protocol: The QTCL construct (SEQ ID NO:7) encodes a maize AGP small subunit protein (SEQ ID NO:8) having a change from a tyrosine at amino acid position 36 to a cysteine and an insertion of a glutamine between the serine at amino acid position 34 and the threonine at amino acid position 35. […] The mutations were verified by sequence analysis.
as §1, §2
The QTCL mutant and wild type enzymes were purified from E. coli as described in the materials and methods.
Assay [5] concerns the target T1, maize endosperm ADP-glucose pyrophosphorylase (AGP), wild type (small subunit BT2 WT-STYL, SEQ ID NO: 2, with wild type large subunit Shrunken-2).
Protocol: E. coli strain AC70R1-504, which lacks the functional AGP gene and cannot synthesize glycogen, was transformed with both pMoncSh2 and pMoncBt2 (plasmids containing the large and small subunit of wt-AGP respectively). An overnight culture was grown with constant shaking at 225 rpm at 37° C. in LB media containing 75 ug/ml spectinomycin and 50 μg/ml kanamycin. An aliquot of the overnight culture (12.5 ml) was used to inoculate a 1 L flask containing the same media. The 1 L flask was grown until the OD600 reached 0.5-0.6. The cultures were cooled to room temperature and protein expression was induced by the addition of 0.2 mM isopropyl-beta-D-thiogalactoside (IPTG) and 0.02 mg/ml nalidixic acid. Expression continued for 3 hours at room temperature with constant shaking. Cells were centrifuged at 8000×g supernatant removed and stored as pellets at −80° C.
The 3-Phosphoglyceric acid (3-PGA) was added at varying amounts, as specified. When varied, the substrates ranged from 0-5 mM. Reactions were terminated after 5 minutes by boiling in a water bath for 1 minute. […] The change in absorbance between the blank and the reaction was used to calculate the amount to PPi produced for each sample. All reactions were linear with time and enzyme concentration. All assay tubes were pre-warmed to 37° C. prior to assaying and were initiated by the addition of enzyme. […]

Regarding `O=C(O)[C@H](O)COP(=O)(O)O` [3-PGA, 3-phosphoglyceric acid], the “Ka (3-PGA)” value in assay [1] was 0.57 ± 0.055; in assay [3], 1.08 ± 0.13. In addition, the “Ka for the QTCL enzyme, fold higher than wild type AGP” value in assay [2] is “approximately 2 -fold”.

For the compound `Nc1ncnc2c1ncn2[C@@H]1O[C@H](COP(=O)(O)OP(=O)(O)OP(=O)(O)O)[C@@H](O)[C@H]1O` [ATP], the “Vmax (ATP)” value in assay [4] (10 mM 3-PGA, 37° C., 10 minutes) stood at 23.4 ± 0.53 µmol/min/mg; in assay [5] (forward reaction, 10 mM 3-PGA, 37° C., 10 minutes), 9.25 ± 0.32 µmol/min/mg. For the same compound, the Km (commonly the concentration of substrate that gives half-maximal velocity) in assay [4] (read-out: Km for ATP, 10 mM 3-PGA, 37° C., 10 minutes) came out at 140 ± 10 µM; in assay [5] (read-out: Km for ATP, forward reaction, 10 mM 3-PGA, 37° C., 10 minutes), 66 ± 10 µM.

The record behind these values is patent US8710298B2, “Heat stable variants of plant adenosine diphosphate glucose pyrophosphorylase small subunit” (University of Florida Research Foundation, Inc., priority 2003, dated 2014).
